From patent EP4722219A1 (Gan & Lee Pharmaceuticals Co., Ltd., priority 2023, dated 2024)

What was measured:
Format in all cases: cell-based
AR protein = target: T1, AR protein (Homo sapiens, UniProt P10275, T878A); test: AR protein degradation in LNCaP cells (Western blot); settings: 8 hours; for percent AR protein degradation at a fixed concentration at 0.01 µM / Degradation of AR protein in LNCaP cells, 10 nM (%): 10 nM; for percent AR protein degradation at a fixed concentration at 0.1 µM / Degradation of AR protein in LNCaP cells, 100 nM (%): 100 nM
T1 construct: host or cells: LNCaP FGC
T1 sequence (P10275 1-920 T878A): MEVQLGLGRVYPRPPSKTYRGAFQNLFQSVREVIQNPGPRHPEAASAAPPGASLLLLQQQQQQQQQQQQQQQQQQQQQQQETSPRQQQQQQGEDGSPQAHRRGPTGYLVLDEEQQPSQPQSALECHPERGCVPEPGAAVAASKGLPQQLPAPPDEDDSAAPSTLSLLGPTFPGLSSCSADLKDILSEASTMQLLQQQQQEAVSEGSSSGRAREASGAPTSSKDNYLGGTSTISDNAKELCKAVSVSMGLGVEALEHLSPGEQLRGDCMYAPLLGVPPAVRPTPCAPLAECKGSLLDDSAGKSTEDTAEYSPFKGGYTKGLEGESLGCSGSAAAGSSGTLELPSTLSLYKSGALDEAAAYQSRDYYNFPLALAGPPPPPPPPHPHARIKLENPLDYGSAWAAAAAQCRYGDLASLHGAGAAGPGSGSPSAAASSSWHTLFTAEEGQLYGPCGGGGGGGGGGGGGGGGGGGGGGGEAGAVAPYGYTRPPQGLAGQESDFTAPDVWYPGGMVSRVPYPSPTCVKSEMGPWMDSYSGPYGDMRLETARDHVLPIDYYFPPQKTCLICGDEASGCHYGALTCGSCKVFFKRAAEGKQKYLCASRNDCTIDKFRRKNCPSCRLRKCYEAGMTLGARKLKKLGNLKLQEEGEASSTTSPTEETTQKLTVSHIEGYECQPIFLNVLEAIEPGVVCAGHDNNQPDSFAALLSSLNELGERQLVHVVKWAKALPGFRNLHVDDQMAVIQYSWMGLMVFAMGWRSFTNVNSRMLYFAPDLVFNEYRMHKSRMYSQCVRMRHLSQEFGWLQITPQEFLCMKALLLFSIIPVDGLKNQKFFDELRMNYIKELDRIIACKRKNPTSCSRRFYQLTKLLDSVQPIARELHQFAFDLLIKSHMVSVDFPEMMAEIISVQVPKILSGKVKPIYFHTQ
Protocol: At the same time, the corresponding solvent control was set and cultured for 8 hours. After 8 hours of culture, the culture medium was removed, the cells were washed with PBS, and RIPA lysis buffer containing 1% Protease Inhibitor Cocktail was added. After lysis and centrifugation, the total protein extract was obtained, and the protein concentration in the extract was detected by BCA method. Protein electrophoresis was performed using SDS-PAGE, and then the protein was transferred to a PVDF (Millipore Sigma catalog number PSRP010R5) membrane at a constant voltage of 100V for 60 minutes. The PVDF membrane was placed in a 5% milk powder 1 ×TBST solution and blocked at room temperature for 1 hour. […] The primary antibody solution was discarded and the PVDF membrane was washed with 1×TBST for 5 minutes each time, for three times. […] The secondary antibody solution was discarded and the PVDF membrane was washed with 1 ×TBST for 5 minutes each time, for three times. A dual-color infrared laser imaging system (Licor catalog number Odyssey CLX) was used for Western membrane imaging. The Image Studio software was used to analyze the grayscale of the bands. GAPDH protein bands were also detected for each sample as the reference. The AR protein degradation rate of the compound and the positive control sample was calculated based on the grayscale of the protein bands.

LNCaP cells = test: Inhibition of LNCaP cell proliferation (WST-8); settings: Homo sapiens, LNCaP FGC cells, 96 hours
Protocol: The inhibitory activity of compounds disclosed in the present invention on LNCaP cell proliferation
The cells were cultured overnight in a 37°C, 5% CO2 cell incubator. […] The final concentration of the compound was 9 concentration points of 5-fold serial dilution starting from 10 µM. […] The cells were cultured in a cell culture incubator at 37°C and 5% CO2 for 96 hours. On the sixth day, the 96-well cell culture plate was removed, and 1/10 volume of WST-8 (Beytime, C0040) reagent was added to each well. The absorbance at 450 nm was detected using a microplate reader (TECAN, F50).

VCaP cells = test: Inhibition of VCaP cell proliferation (WST-8); settings: Homo sapiens, 168 hours
Protocol: On the first day of the experiment, VCaP cells were seeded at a density of 15,000 cells/well in a 96-well plate using DMEM medium containing 10% fetal bovine serum, with 100µL of cell suspension per well, and cultured overnight in a cell incubator at 37°C and 5% CO2. On the second day, 100µL of the compound of the present invention and the positive control ARV-110 (source: Anaiji) prepared in culture medium at different concentrations were added to each well. The final concentration of the compound was 9 concentration points of 5-fold serial dilution starting from 10 µM. […] On the ninth day, the 96-well cell culture plate was removed and 1/10 volume of WST-8 (Beytime, C0040) reagent was added to each well. The absorbance at 450nm was measured using a microplate reader (TECAN, F50).

Row | Structure (SMILES) | percent AR protein degradation at a fixed concentration at 0.01 µM (AR protein) | percent AR protein degradation at a fixed concentration at 0.1 µM (AR protein) | IC50 (LNCaP cells) | IC50 (VCaP cells) | Degradation of AR protein in LNCaP cells, 10 nM (%) (AR protein) | Degradation of AR protein in LNCaP cells, 100 nM (%) (AR protein)
1 | C[C@H]1CC2(CCN(c3ccc(N4CCC(CN5CCC6(CC5)CCC5(CC6)COc6c5ccc5c6CN(C6CCC(=O)NC6=O)C5=O)CC4)cc3)CC2)CN1c1ccc(C#N)c(Cl)c1 (stereo partly drawn) [A-P-8, (S)-1'-((1-(4-(6-chloro-7-cyanospiro-spiro[tryptophan-3,4'-piperidin]-1'-yl)benzoyl)piperidin-4-yl)methyl)-N-(2,6-dioxopiperidin-3-yl)-7-fluoro-spiro[tryptophan-2,4'-pyridyl]-6-carboxamide] | -4% | 63% | 0.2 µM | 0.005 µM |  | 
2 | COc1cc2c(cc1C(=O)N[C@H]1CCC(=O)NC1=O)CCC1(CCN(CC3CCN(c4ccc(N5CCC6(CC5)C[C@H](C)N(c5ccc(C#N)c(Cl)c5)C6)cc4)CC3)CC1)O2 [A-P-54] |  |  | 0.91 µM | 0.007 µM | 40% | 74%
3 | N#Cc1cc2c(cc1Cl)CC1(CCN(c3ccc(C(=O)N4CCC(CN5CCC6(CCc7cc(C(=O)N[C@H]8CCC(=O)NC8=O)c(F)cc7O6)CC5)CC4)cc3)CC1)CO2 [A-P-51] | -23% | 12% | 3.36 µM | 8.44 µM |  | 
4 | COc1cc2c(cc1C(=O)N[C@H]1CCC(=O)NC1=O)C1(CCN(CC3CCN(C(=O)c4ccc(N5CCC6(CC5)C[C@H](C)N(c5ccc(C#N)c(Cl)c5)C6)cc4)CC3)CC1)CO2 [A-P-82, 1'-((1-(4-((S)-2-(3-chloro-4-cyanophenyl)-3-methyl-2,8-diazaspiro[4.5]decan-8-yl)benzoyl)piperidin-4-yl)methyl)-N-((S)-2,6-dioxohesperidin-3-yl)-6-methoxy-2H-spiro[benzofuran-3,4'-piperidin]-5-carboxamide] | 55% | 83% | 15.7 µM | 0.049 µM |  | 
5 | C[C@H]1CC2(CCN(c3ccc(N4CCC(CN5CCN6c7ccc(C(=O)N[C@H]8CCC(=O)NC8=O)c(F)c7OC[C@H]6C5)CC4)cc3)CC2)CN1c1ccc(C#N)c(Cl)c1 [A-P-61, (R)-3-((1-(4-((S)-2-(3-chloro-4-cyanophenyl)-3-methyl-2,8-diazaspiro[4.5]decan-8-yl)phenyl)piperidin-4-yl)methyl)-N-((S)-2,6-dioxopiperidin-3-yl)-7-fluoro-1,2,3,4,4a,5-hexahydrobenzo[b]pyrazi no[1,2-d][1,4]oxazine-8-carboxamide] | 24% | 79% | 0.21 µM | 0.19 µM |  | 
6 | C[C@H]1CC2(CCN(c3ccc(N4CCC(CN5CC6(CCC7(CC6)COc6c7ccc7c6CN(C6CCC(=O)NC6=O)C7=O)C5)CC4)cc3)CC2)CN1c1ccc(C#N)c(Cl)c1 (stereo partly drawn) [A-P-6, 2-chloro-4-((3S)-8-(4-(4-((7'-(2,6-dioxopiperidin-3-yl)-6'-oxo-7',8'-dihydro-2'H,6'H-dipyrazole[azetidine-3,1'-cyclohexane-4',3'-furo[2,3-e]isoindol]-1-yl)methyl)piperidin-1-yl)phenyl)-3-methyl-2,8-diazaspiro[4.5]decan-2-yl)benzonitrile] |  |  | 1.02 µM | 0.00016 µM | 58% | 60%
7 | N#Cc1cc2c(cc1Cl)OCC1(CCN(C(=O)c3ccc(N4CCC(CN5CCC6(CCc7cc(C(=O)N[C@H]8CCC(=O)NC8=O)c(F)cc7O6)CC5)CC4)cc3)CC1)O2 [A-P-44, (S)-1'-((1-(4-(6-chloro-7-cyano-3H-spiro[benzo[b][1,4]dioxane-2,4'-piperidin]-1'-carbonyl)phenyl)piperidin-4-yl)methyl)-N-(2,6-dioxopiperidin-3-yl)-7-fluorospiro[chroman-2,4'-piperidin]-6-carboxamide] | 20% | 9% | 0.24 µM | 2.89 µM |  | 
8 | CC1(C)[C@H](NC(=O)c2ccc(N3CCC(CN4CCN5c6ccc(C(=O)N[C@H]7CCC(=O)NC7=O)cc6OC[C@H]5C4)CC3)cc2)C(C)(C)[C@H]1Oc1ccc(C#N)c(Cl)c1 [A-P-77] |  |  | 0.44 µM | 0.0055 µM | 20% | 62%
9 | N#Cc1cc2c(cc1Cl)OC1(CCN(C(=O)c3ccc(N4CCC(CN5CCC6(CCc7cc(C(=O)N[C@H]8CCC(=O)NC8=O)c(F)cc7O6)CC5)CC4)cc3)CC1)CO2 [A-P-53, (S)-1'-((1-(4-(7-chloro-6-cyano-3H-spiro[benzo[b][1,4]dioxane-2,4'-piperidin]-1'-carbonyl)phenyl)piperidin-4-yl)methyl)-N-(2,6-dioxopiperidin-3-yl)-7-fluorospiro[chroman-2,4'-piperidin]-6-carboxamide] | -11% | -3% | 0.14 µM | 1.32 µM |  | 
10 | N#Cc1cc2c(cc1Cl)OC1(CCN(c3ccc(C(=O)N4CCC(CN5CCC6(CCc7cc(C(=O)N[C@H]8CCC(=O)NC8=O)c(F)cc7O6)CC5)CC4)cc3)CC1)CO2 [A-P-46, (S)-1'-((1-(4-(7-chloro-6-cyano-3H-spiro[benzo[b][1,4]dioxo-2,4'-piperidin]-1'-yl)benzoyl)piperidin-4-yl)methyl)-N-(2,6-dioxopiperidin-3-yl)-7-fluorospiro[chroman-2,4'-piperidin]-6-carboxamide] | 4% | 15% | 0.89 µM | 3.75 µM |  | 
11 | COc1cc2c(cc1C(=O)N[C@H]1CCC(=O)NC1=O)OCC21CCN(CC2CCN(c3ccc(N4CCC5(CC4)C[C@H](C)N(c4ccc(C#N)c(Cl)c4)C5)cc3)CC2)CC1 [A-P-80, 1'-((1-(4-((S)-2-(3-chloro-4-cyanophenyl)-3-methyl-2,8-diazaspiro[4.5]decan-8-yl)phenyl)piperidin-4-yl)methyl)-N-((S)-2,6-dioxopiperidin-3-yl)-5-methoxy-2H-spiro[benzofuran-3,4'-piperidin]-6-carboxamide] | 22% | 73% | 1.94 µM | 0.051 µM |  | 
12 | COc1cc2c(cc1C(=O)N[C@H]1CCC(=O)NC1=O)C1(CCN(CC3CCN(c4ccc(N5CCC6(CC5)C[C@H](C)N(c5ccc(C#N)c(Cl)c5)C6)cc4)CC3)CC1)CO2 [A-P-81, 1'-((1-(4-((S)-2-(3-chloro-4-cyanophenyl)-3-methyl-2,8-diazaspiro[4.5]decan-8-yl)phenyl)piperidin-4-yl)methyl)-N-((S)-2,6-dioxopiperidin-3-yl)-6-methoxy-2H-spiro[benzofuran-3,4'-piperidin]-5-carboxamide] | -15% | 30% | 14.5 µM | 1.79 µM |  | 
